US20110263647A1 (AMGEN INC., priority 2009, published 2011)
Where a name gives a salt, the structure may show the parent alone.

The compounds below were run against T1, PKBα (Homo sapiens, UniProt P31749) (assay: PKB kinase assay (P33-labeled ATP, peptide substrate, filter plate)). Conditions: with respect to PKBα.
T1 construct: fused on or other part: His6 tag is likely on the Upstate products
Assay type: biochemical
Text: The kinase assay for evaluating PKB activity comprises active PKB enzymes, a PKB specific substrate, and P^33-labeled ATP. Two form of PKBα enzymes were used, the full length PKBα and a kinase domain of PKBα with pleckstrin domain (amino acids 1-117) deleted. Both PKB enzymes were obtained from Upstate cell signaling solutions (Cat.# 14-276 and 14-341). The PKB substrate used is a synthetic peptide (ARKRERTYSFGHHA (SEQ ID NO: 1)) as described in Obata et al., J. Biol. Chem. 275 (46), 36108-36115 (2000). The phosphorylated substrate was captured by a phosphocellulose membrane filter plate (MILLIPORE) and measured by a Wallac Microbeta liquid scintillation counter (Perkin Elmer). Table 1 provides the IC50 values obtained for each of the examples with respect to PKBα.

T1 sequence (P31749 118-472 limits assumed): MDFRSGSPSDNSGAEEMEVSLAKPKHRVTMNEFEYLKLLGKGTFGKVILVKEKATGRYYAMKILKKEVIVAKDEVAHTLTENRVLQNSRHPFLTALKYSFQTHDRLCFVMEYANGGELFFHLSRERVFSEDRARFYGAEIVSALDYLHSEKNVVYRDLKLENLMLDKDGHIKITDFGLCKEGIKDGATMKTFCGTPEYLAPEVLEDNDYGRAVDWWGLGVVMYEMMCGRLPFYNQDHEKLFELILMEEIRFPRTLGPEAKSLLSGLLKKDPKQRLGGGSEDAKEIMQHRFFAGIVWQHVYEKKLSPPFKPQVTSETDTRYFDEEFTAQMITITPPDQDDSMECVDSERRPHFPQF

| SMILES | IC50 |
| --- | --- |
| NC(CNc1ncc(-c2ccc3cnc(F)cc3c2)s1)Cn1ccc(C(F)(F)F)n1 (stereo in doubt) [Example 29, N—((S)-2-Amino-3-(3-(trifluoromethyl)-1H-pyrazol-1-yl)propyl)-5-(3-fluoroisoquinolin-6-yl)thiazol-2-amine] | 50 to 1000 nM |
| COC[C@@H](c1ccc(C(F)(F)F)cc1)[C@H](N)CNc1ncc(-c2ccc3cnc(F)cc3c2)s1 [Example 32, N-((2S,3S)-2-Amino-4-methoxy-3-(4-(trifluoromethyl)phenyl)butyl)-5-(3-fluoroisoquinolin-6-yl)thiazol-2-amine] | < 50 nM |
| COCc1nc(NCC(N)[C@@H](C)c2ccc(C(F)(F)F)cc2)sc1-c1ccc2cnc(F)cc2c1 (stereo in doubt) [Example 27, N-((2R,3S)-2-Amino-3-(4-(trifluoromethyl)phenyl)butyl)-5-(3-fluoroisoquinolin-6-yl)-4-(methoxymethyl)thiazol-2-amine] | < 50 nM |
| CS(=O)(=O)C[C@@H](c1ccc(C(F)(F)F)cc1)[C@H](N)CNc1ncc(-c2ccc3cnc(F)cc3c2)s1 [Example 34, N-((2S,3S)-2-Amino-4-(methylsulfonyl)-3-(4-(trifluoromethyl)phenyl)butyl)-5-(3-fluoroisoquinolin-6-yl)thiazol-2-amine] | 50 to 1000 nM |
| N[C@H](CNc1ncc(-c2ccc3cnc(F)cc3c2)s1)Cc1cnc(F)c(Cl)c1 [Example 40, N—((S)-2-Amino-3-(5-chloro-6-fluoropyridin-3-yl)propyl)-5-(3-fluoroisoquinolin-6-yl)thiazol-2-amine] | 50 to 1000 nM |
| N[C@H](CNc1ncc(-c2ccc3cnc(F)cc3c2)s1)Cc1ccc(Cl)cc1 [Example 5, N—((S)-2-Amino-3-(4-chlorophenyl)propyl)-5-(3-fluoroisoquinolin-6-yl)thiazol-2-amine] | < 50 nM |
| N[C@H](CNc1ncc(-c2ccc3cnc(F)cc3c2)s1)CN1CCCC(C(F)(F)F)C1 (stereo partly drawn) [Example 30, N—((R)-2-Amino-3-((3S)-(trifluoromethyl)piperidin-1-yl)propyl)-5-(3-fluoroisoquinolin-6-yl)thiazol-2-amine] | 1000 to 10000 nM |
| N[C@H](CNc1ncc(-c2ccc3cnc(F)cc3c2)s1)Cc1ccc(Cl)c(Cl)c1 [Example 14, N—((S)-2-amino-3-(3,4-dichlorophenyl)propyl)-5-(3-fluoroisoquinolin-6-yl)thiazol-2-amine] | < 50 nM |
| Cn1ccc(C[C@H](N)CNc2ncc(-c3ccc4cnc(F)cc4c3)s2)cc1=O [Example 46] | 50 to 1000 nM |
| N[C@H](CNc1ncc(-c2ccc3cnc(F)cc3c2)s1)Cc1ccc2c(c1)OCCO2 [Example 43, N—((S)-2-Amino-3-(2,3-dihydrobenzo[b][1,4]dioxin-6-yl)propyl)-5-(3-fluoroisoquinolin-6-yl)thiazol-2-amine] | < 50 nM |
| COC(=O)c1ccc(C[C@H](N)CNc2ncc(-c3ccc4cnc(F)cc4c3)s2)cc1 [Example 45] | 50 to 1000 nM |
| N[C@H](CNc1ncc(-c2ccc3cnc(F)cc3c2)s1)[C@@H](O)c1ccc(C(F)(F)F)cc1 [Example 37, (1S,2R)-2-Amino-3-((5-(3-fluoro-6-isoquinolinyl)-1,3-thiazol-2-yl)amino)-1-(4-(trifluoromethyl)phenyl)-1-propanol trifluoroacetate] | < 50 nM |
| N[C@H](CNc1ncc(-c2ccc3cnc(F)cc3c2)s1)Cc1ccc(C(F)F)cc1 [Example 42, (2S)-3-(4-(difluoromethyl)phenyl)-N-1-(5-(3-fluoro-6-isoquinolinyl)-1,3-thiazol-2-yl)-1-2-propanediamine trifluoroacetate] | < 50 nM |

The remaining lines, values ahead:

| IC50 | SMILES |
| --- | --- |
| 1000 to 10000 nM | N[C@H](CNc1nc(C(=O)NC2CC2)c(-c2ccc3cnc(F)cc3c2)s1)Cc1ccc(C(F)(F)F)cc1 [Example 23, 2-((S)-2-Amino-3-(4-(trifluoromethyl)phenyl)propylamino)-N-cyclopropyl-5-(3-fluoroisoquinolin-6-yl)thiazole-4-carboxamide] |
| 1000 to 10000 nM | N[C@@H](CNc1ncc(-c2ccc3cnc(F)cc3c2)s1)Cc1ccc(C(F)(F)F)nc1 [Example 47, (2R)—N^1-(5-(3-Fluoro-6-isoquinolinyl)-1,3-thiazol-2-yl)-3-(6-(trifluoromethyl)-3-pyridinyl)-1,2-propanediamine] |
| < 50 nM | CC#Cc1nc(NC[C@@H](N)Cc2ccc(C(F)(F)F)nc2)sc1-c1ccc2cnc(F)cc2c1 [Example 35, N—((S)-2-Amino-3-(6-(trifluoromethyl)pyridin-3-yl)propyl)-5-(3-fluoroisoquinolin-6-yl)-4-(prop-1-ynyl)thiazol-2-amine] |
| < 50 nM | N[C@H](CNc1ncc(-c2ccc3cnc(F)cc3c2)s1)Cc1cnc(C(F)(F)F)nc1 [Example 26, N—((S)-2-Amino-3-(2-(trifluoromethyl)pyrimidin-5-yl)propyl)-5-(3-fluoroisoquinolin-6-yl)thiazol-2-amine] |
| < 50 nM | N[C@H](CNc1nc(CO)c(-c2ccc3cnc(F)cc3c2)s1)Cc1ccc(C(F)(F)F)cc1 [Example 21, (2-((S)-2-Amino-3-(4-(trifluoromethyl)phenyl)propylamino)-5-(3-fluoroisoquinolin-6-yl)thiazol-4-yl)methanol] |
| < 50 nM | COCc1nc(NC[C@@H](N)Cc2ccc(C(F)(F)F)cc2)sc1-c1ccc2cnc(F)cc2c1 [Example 24, N—((S)-2-Amino-3-(4-(trifluoromethyl)phenyl)propyl)-5-(3-fluoroisoquinolin-6-yl)-4-(methoxymethyl)thiazol-2-amine] |
